Source: PubChem BioAssay AID248 (DTP/NCI, 2004)
Several values for one entry are separate records, joined by “and”; a condition that tells them apart may be missing. Identical values can stand only once. Inconclusive results and toxic doses are left out. Rule as the data show it: active = T/C of 150% or more; inactive = T/C below 125%. Peptide text beside a SMILES is read from it. * marks the point of attachment. Cbz = O=C(OCc1ccccc1)*

Tested on: L1210 leukemia ip in BDF1 mice, survival T/C
Test: NCI In Vivo Anticancer Drug Screen. Data for tumor model L1210 Leukemia (intraperitoneal) in B6D2F1 (BDF1) mice
Conditions: endpoint: mean survival time, higher = longer survival
Summary of the method: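 Read-out is survival time, reported as the treated-group measurement over the vehicle-control measurement.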

[1] = dose: 75.0 mg/kg/injection, schedule: Q04DX003 (ip), vehicle: Klucel (hydroxypropylcellulose) (HPC)
[2] = dose: 150.0 mg/kg/injection, schedule: Q04DX003 (ip), vehicle: Klucel (hydroxypropylcellulose) (HPC)
[3] = dose: 300.0 mg/kg/injection, schedule: Q04DX003 (ip), vehicle: Klucel (hydroxypropylcellulose) (HPC)
[4] = dose: 100.0 mg/kg/injection, schedule: Q04DX002 (ip), vehicle: Klucel (hydroxypropylcellulose) (HPC)
[5] = dose: 200.0 mg/kg/injection, schedule: Q04DX002 (ip), vehicle: Klucel (hydroxypropylcellulose) (HPC)
[6] = dose: 400.0 mg/kg/injection, schedule: Q04DX002 (ip), vehicle: Klucel (hydroxypropylcellulose) (HPC)
[7] = dose: 100.0 mg/kg/injection, schedule: Q04DX003 (ip), vehicle: Klucel (hydroxypropylcellulose) (HPC)
[8] = dose: 200.0 mg/kg/injection, schedule: Q04DX003 (ip), vehicle: Klucel (hydroxypropylcellulose) (HPC)
[9] = dose: 100.0 mg/kg/injection, schedule: Q01DX001 (ip), vehicle: saline with Tween-80
[10] = dose: 100.0 mg/kg/injection, schedule: Q01DX009 (ip), vehicle: saline with Tween-80
[11] = dose: 100.0 mg/kg/injection, schedule: Q04DX002 (ip), vehicle: saline with Tween-80
[12] = dose: 200.0 mg/kg/injection, schedule: Q01DX001 (ip), vehicle: saline with Tween-80
[13] = dose: 200.0 mg/kg/injection, schedule: Q01DX009 (ip), vehicle: saline with Tween-80
[14] = dose: 200.0 mg/kg/injection, schedule: Q04DX002 (ip), vehicle: saline with Tween-80
[15] = dose: 400.0 mg/kg/injection, schedule: Q04DX002 (ip), vehicle: saline with Tween-80
[16] = dose: 100.0 mg/kg/injection, schedule: Q04DX003 (ip), vehicle: saline with Tween-80
[17] = dose: 400.0 mg/kg/injection, schedule: Q01DX009 (ip), vehicle: saline with Tween-80
[18] = dose: 100.0 mg/kg/injection, schedule: Q01DX001 (ip), vehicle: saline
[19] = dose: 200.0 mg/kg/injection, schedule: Q01DX001 (ip), vehicle: saline
[20] = dose: 400.0 mg/kg/injection, schedule: Q01DX001 (ip), vehicle: saline
[21] = dose: 400.0 mg/kg/injection, schedule: Q04DX003 (ip), vehicle: Klucel (hydroxypropylcellulose) (HPC)
[22] = dose: 400.0 mg/kg/injection, schedule: Q01DX001 (ip), vehicle: saline with Tween-80

Measured: T/C

O=S(=O)(/N=C1C=C(N2CCOCC2)/C(=N/S(=O)(=O)c2ccccc2)C=C/1N1CCOCC1)c1ccccc1
inactive: [1] 97 % of control | [2] 89 % of control | [3] 100 % of control

CCC1CCCCN1C (configuration not stated)
inactive: dose: 25.0 mg/kg/injection, schedule: Q01DX009 (ip), vehicle: acetone 96 % of control | dose: 50.0 mg/kg/injection, schedule: Q01DX009 (ip), vehicle: acetone 94 % of control | dose: 100.0 mg/kg/injection, schedule: Q01DX009 (ip), vehicle: acetone 100 % of control

CC[CH2][Pb]([CH2]CC)([CH2]CC)[O]C(=O)CCl
inactive: dose: 3.0 mg/kg/injection, schedule: Q01DX009 (ip), vehicle: Klucel (hydroxypropylcellulose) (HPC) 106 % of control | dose: 6.0 mg/kg/injection, schedule: Q01DX009 (ip), vehicle: Klucel (hydroxypropylcellulose) (HPC) 101 % of control | dose: 12.5 mg/kg/injection, schedule: Q01DX009 (ip), vehicle: Klucel (hydroxypropylcellulose) (HPC) 96 % of control

COc1c(-c2cc(C)nc(NC#N)n2)c(O)cc2occc12
inactive: [4] 95 % of control | [5] 95 % of control | [6] 98 % of control

CCCCCC[n+]1cccc(C(N)=O)c1
inactive: [7] 100 % of control | [8] 94 % of control

O=C(NC(=S)Nc1cccc(C(F)(F)F)c1)c1cc([N+](=O)[O-])cc([N+](=O)[O-])c1
inactive: [9] 93 % of control | [10] 89 % of control | [11] 101 % of control | [12] 98 % of control | [13] 87 % of control and 89 % of control | [14] 94 % of control | [15] 97 % of control

N#Cc1ccc(Cc2ccc(C#N)cc2)cc1
inactive: [10] 95 % of control | [16] 95 % of control | [13] 97 % of control | dose: 200.0 mg/kg/injection, schedule: Q04DX003 (ip), vehicle: saline with Tween-80 101 % of control | [17] 100 % of control | dose: 400.0 mg/kg/injection, schedule: Q04DX003 (ip), vehicle: saline with Tween-80 106 % of control

CCC1(c2ccccc2)C(=O)N(COCc2ccccc2)C(=O)N(COCc2ccccc2)C1=O
inactive: [10] 98 % of control | [11] 98 % of control | [13] 102 % of control | [14] 95 % of control | [17] 95 % of control | [15] 98 % of control

C1=C(c2ccccc2)CCN(C2(c3ccccc3)CCCCC2)C1
inactive: [18] 101 % of control | [19] 93 % of control | [20] 95 % of control

COC(=O)C(CC(C)C)NC(=O)C(CC(N)=O)NC(=O)C(NC(=O)OCc1ccccc1)C(C)C (stereo not drawn) (Cbz-Val-Asn-Leu-OMe; configuration not given here)
inactive: [18] 95 % of control | [19] 91 % of control | [20] 91 % of control

CC1CCCC2=[N+]1CCCC2 (configuration not stated)
inactive: dose: 50.0 mg/kg/injection, schedule: Q01DX001 (ip), vehicle: carboxymethylcellulose (CMC) 96 % of control | dose: 100.0 mg/kg/injection, schedule: Q01DX001 (ip), vehicle: carboxymethylcellulose (CMC) 96 % of control | dose: 200.0 mg/kg/injection, schedule: Q01DX001 (ip), vehicle: carboxymethylcellulose (CMC) 93 % of control

O=C1OC(c2cccc(Cl)c2)=N/C1=C\c1ccc2c(c1)OCO2
inactive: [11] 95 % of control | [14] 89 % of control | [15] 92 % of control

Nc1cccc(CNC(=O)COc2cccc(Cl)c2)c1
inactive: dose: 50.0 mg/kg/injection, schedule: Q01DX009 (ip), vehicle: Klucel (hydroxypropylcellulose) (HPC) 116 % of control | dose: 100.0 mg/kg/injection, schedule: Q01DX009 (ip), vehicle: Klucel (hydroxypropylcellulose) (HPC) 109 % of control | [7] 96 % of control | dose: 200.0 mg/kg/injection, schedule: Q01DX009 (ip), vehicle: Klucel (hydroxypropylcellulose) (HPC) 120 % of control | [8] 96 % of control | [21] 104 % of control

O=C(CC(=O)c1ccco1)c1ccccc1
inactive: [18] 102 % of control | [19] 100 % of control | [20] 96 % of control

O=c1[nH]c(=O)n(C2OC(CO)C(O)C2O)cc1O (configuration not stated)
inactive: dose: 100.0 mg/kg/injection, schedule: Q01DX001 (ip), vehicle: water 92 % of control | dose: 200.0 mg/kg/injection, schedule: Q01DX001 (ip), vehicle: water 94 % of control | dose: 400.0 mg/kg/injection, schedule: Q01DX001 (ip), vehicle: water 103 % of control

O=C(CC(=O)c1ccccc1)c1ccccc1.O=C(CC(=O)c1ccccc1)c1ccccc1.O=C(CC(=O)c1ccccc1)c1ccccc1.[Cr]
inactive: [4] 93 % of control | [5] 101 % of control | [6] 104 % of control

O=C(NC1CCCCC1)N(O)C12CC3CC(CC(C3)C1)C2
inactive: [9] 108 % of control | [12] 92 % of control | [22] 95 % of control

CCOC(=O)c1ccc(NC(=O)Nc2cc(OC)ccc2OC)cc1
inactive: dose: 25.0 mg/kg/injection, schedule: Q01DX009 (ip), vehicle: saline with Tween-80 100 % of control and 91 % of control | dose: 50.0 mg/kg/injection, schedule: Q01DX009 (ip), vehicle: saline with Tween-80 95 % of control | [9] 98 % of control | [11] 96 % of control | [16] 96 % of control | [12] 95 % of control | [13] 91 % of control | [14] 100 % of control | [22] 91 % of control | [15] 94 % of control

O=C(CCl)NC(O)C(Cl)(Cl)Cl (configuration not stated)
inactive: dose: 1.8 mg/kg/injection, schedule: Q01DX009 (ip), vehicle: saline with Tween-80 100 % of control | dose: 3.7 mg/kg/injection, schedule: Q01DX009 (ip), vehicle: saline with Tween-80 98 % of control | dose: 7.5 mg/kg/injection, schedule: Q01DX009 (ip), vehicle: saline with Tween-80 102 % of control | dose: 75.0 mg/kg/injection, schedule: Q04DX003 (ip), vehicle: saline 101 % of control | dose: 150.0 mg/kg/injection, schedule: Q04DX003 (ip), vehicle: saline 101 % of control | dose: 300.0 mg/kg/injection, schedule: Q04DX003 (ip), vehicle: saline 87 % of control

O=C1NC(=O)N2CCSC2(Cc2ccccc2)N1 (configuration not stated)
inactive: dose: 50.0 mg/kg/injection, schedule: Q01DX001 (ip), vehicle: saline 108 % of control | [18] 96 % of control | [19] 96 % of control | [20] 100 % of control

CCCCCCn1c2ccccc2c2cc3cnccc3c(C)c21
inactive: dose: 37.5 mg/kg/injection, schedule: Q04DX003 (ip), vehicle: Klucel (hydroxypropylcellulose) (HPC) 97 % of control | [1] 97 % of control | [2] 102 % of control | [3] 104 % of control

O=[N+]([O-])c1cc2c(cc1/C=N/N=C1c3ccccc3-c3ccccc31)OCO2
inactive: dose: 75.0 mg/kg/injection, schedule: Q01DX001 (ip), vehicle: other 94 % of control | dose: 150.0 mg/kg/injection, schedule: Q01DX001 (ip), vehicle: other 92 % of control

CC(=O)NC(=O)Nc1ccccc1
inactive: [7] 94 % of control | [8] 103 % of control | [21] 95 % of control
